Reference: ChEMBL document CHEMBL5038589, “Design, Synthesis, and Structure-Activity Relationship of N-Aryl-N'-(thiophen-2-yl)thiourea Derivatives as Novel and Specific Human TLR1/2 Agonists for Potential Cancer Immunotherapy” (J Med Chem, 2021)
Calls of active or inactive are those of the source. No cut-off for these calls is given here.

These molecules were tested against T1, Toll-like receptor 2 (Homo sapiens, UniProt O60603) (assay: Binding affinity to recombinant human TLR2 expressed in H5 cells by surface plasmon resonance method). Settings: not given.
T1 sequence (O60603 whole entry): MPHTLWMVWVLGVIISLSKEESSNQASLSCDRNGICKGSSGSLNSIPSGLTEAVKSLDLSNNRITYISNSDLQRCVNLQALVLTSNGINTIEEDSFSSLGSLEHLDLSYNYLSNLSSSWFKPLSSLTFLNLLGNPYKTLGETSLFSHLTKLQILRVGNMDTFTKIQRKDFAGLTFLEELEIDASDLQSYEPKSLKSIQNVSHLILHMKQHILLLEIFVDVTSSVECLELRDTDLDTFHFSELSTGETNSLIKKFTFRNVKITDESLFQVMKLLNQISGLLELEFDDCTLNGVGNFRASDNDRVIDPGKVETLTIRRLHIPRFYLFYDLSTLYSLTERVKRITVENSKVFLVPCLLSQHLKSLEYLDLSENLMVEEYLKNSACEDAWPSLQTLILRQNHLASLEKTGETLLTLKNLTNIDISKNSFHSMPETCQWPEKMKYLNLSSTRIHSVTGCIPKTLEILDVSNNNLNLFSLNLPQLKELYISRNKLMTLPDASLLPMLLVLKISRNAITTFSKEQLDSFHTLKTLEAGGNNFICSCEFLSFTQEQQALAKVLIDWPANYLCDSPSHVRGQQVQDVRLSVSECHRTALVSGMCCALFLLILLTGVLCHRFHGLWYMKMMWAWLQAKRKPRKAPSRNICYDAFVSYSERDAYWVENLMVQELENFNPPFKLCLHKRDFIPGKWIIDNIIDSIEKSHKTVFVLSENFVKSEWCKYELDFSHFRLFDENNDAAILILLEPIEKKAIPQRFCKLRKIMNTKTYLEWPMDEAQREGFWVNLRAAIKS

SMILES	Kd [µM]
CCOC(=O)c1c(NC(=O)Nc2ccccc2)sc2c1CCCCC2	9

The molecules below were run against T1, Toll-like receptor 2 (assay: Agonist activity at TLR2 in HEK-Blue cells upto 200 uM incubated for 24 hrs by Quanti-Blue based SEAP assay). Settings: HEK-Blue hTLR2, dose microM <=200, time 24.0 hrs.
Type: cell-based

SMILES	Activity
COC(=O)c1c(NC(=O)Nc2ccc(C)cc2)sc2c1CCC2	inactive
CC(C)OC(=O)c1ccsc1NC(=S)Nc1cccc2ccccc12	inactive
COC(=O)c1c(NC(=S)NCCCSC)sc2c1CCCC2	inactive
CC(C)OC(=O)c1c(-c2ccccc2)csc1NC(=S)Nc1cccc2ccccc12	inactive
CCOC(=O)c1c(NC(=O)Nc2cccc(Cl)c2)sc2c1CCC2	inactive
O=C(O)c1c(NC(=S)Nc2cccc3ccccc23)sc2c1CCC2	inactive
CCOC(=O)c1c(NC(=O)Nc2ccc(Cl)c(Cl)c2)sc2c1CCCC2	inactive
CC(C)OC(=O)c1c(NC(=S)Nc2cccc3ccccc23)sc2c1CCN(C)C2	inactive
CC(C)(C)OC(=O)c1c(NC(=S)Nc2cccc3ccccc23)sc2c1CCCC2	inactive
CCOC(=O)c1ccsc1NC(=S)Nc1cccc2ccccc12	inactive
COC(=O)c1c(NC(=O)Nc2ccc(Cl)cc2)sc2c1CCC2	inactive
CC(C)(C)OC(=O)c1c(NC(=S)Nc2cccc3ccccc23)sc2c1CCC2	inactive
CCOC(=O)c1c(NC(=S)Nc2cccc3ccccc23)sc2c1CCN(C)C2	inactive
COC(=O)c1c(NC(=S)NCCc2ccccc2)sc2c1CCCC2	inactive
CCOC(=O)c1c(NC(=S)NCCCSC)sc2c1CCCC2	inactive
CCOC(=O)c1c(NC(=O)Nc2ccc(Cl)cc2)sc2c1CCC2	inactive
COC(=O)c1c(NC(=O)Nc2ccc(Cl)cc2)sc2c1CCCC2	inactive
CCCCOC(=O)c1c(NC(=S)Nc2cccc3ccccc23)sc2c1CCCC2	inactive
CCOC(=O)c1c(-c2ccccc2)csc1NC(=S)Nc1cccc2ccccc12	inactive
CCOC(=O)c1c(NC(=O)Nc2ccc(Cl)cc2)sc2c1CCCC2	inactive
O=C(OCCc1ccccc1)c1c(NC(=S)Nc2cccc3ccccc23)sc2c1CCC2	inactive
O=C(O)c1c(NC(=S)Nc2cccc3ccccc23)sc2c1CCCC2	inactive
CCOC(=O)c1c(NC(=O)Nc2ccc(Cl)c(Cl)c2)sc2c1CCC2	inactive

The molecules below were run against T1, Toll-like receptor 2 (assay: Agonist activity at TLR2 in HEK-Blue cells incubated for 24 hrs by Quanti-Blue based SEAP assay). Settings: not given.
Type: cell-based, HEK-Blue hTLR2

SMILES	EC50 [µM]
COC(=O)c1c(NC(=S)Nc2ccccc2)sc2c1CCCC2	14.7
CCOC(=O)c1c(NC(=O)Nc2ccc(C)cc2)sc2c1CCCC2	14.6
CCOC(=O)c1c(NC(=O)Nc2cccc3ccccc23)sc2c1CCCC2	5.84
CCOC(=O)c1c(N=C(S)Nc2ccc(F)cc2)sc2c1CCC2	13.3
CCCOC(=O)c1c(NC(=S)Nc2cccc3ccccc23)sc2c1CCC2	0.82
CC(C)OC(=O)c1c(NC(=S)Nc2ccc(F)c3ccccc23)sc2c1CCCC2	0.035
CC(C)COC(=O)c1c(NC(=S)Nc2cccc3ccccc23)sc2c1CCCC2	30.4
CC(C)OC(=O)c1c(NC(=S)Nc2cccc3ccccc23)sc2c1CCCC2	0.14
CCOC(=O)c1c(NC(=S)Nc2ccc(C(F)(F)F)cc2)sc2c1CCCC2	11.9
COC(=O)c1c(NC(=S)Nc2ccccc2)sc2c1CCC2	14.1
COC(=O)c1c(NC(=S)Nc2ccc(C)cc2)sc2c1CCCC2	10.3
CCOC(=O)c1c(NC(=S)Nc2cccc3ccccc23)sc2c1CCC(C)C2 (configuration not stated)	1.73
CCOC(=O)c1c(NC(=S)Nc2ccc(-c3ccccc3)cc2)sc2c1CCC2	7.13
CC(C)COC(=O)c1c(NC(=S)Nc2cccc3ccccc23)sc2c1CCC2	28.2
CCOC(=O)c1c(NC(=O)Nc2ccccc2)sc2c1CCCCC2	11.7
CCOC(=O)c1c(NC(=S)Nc2ccc(Cl)cc2)sc2c1CCC2	2.5
CCOC(=O)c1c(NC(=S)Nc2ccc(C)cc2)sc2c1CCCC2	8.77
CCOC(=O)c1c(NC(=S)Nc2ccccc2)sc2c1CCC2	5.9
CCOC(=O)c1c(NC(=S)Nc2cccc3ccccc23)sc2c1CCCCC2	2.35
CCOC(=O)c1c(NC(=S)Nc2ccc(F)cc2)sc2c1CCCC2	12.1
CCOC(=O)c1c(NC(=O)Nc2ccc(C)cc2)sc2c1CCC2	12.1
CCOC(=O)c1c(N=C(S)Nc2ccccc2)sc2c1CCCCC2	28.5
CCOC(=O)c1c(NC(=O)Nc2ccccc2)sc2c1CCC2	11.9
COC(=O)c1c(NC(=S)Nc2cccc3ccccc23)sc2c1CCC2	3.57
CCOC(=O)c1c(NC(=O)Nc2cccc3ccccc23)sc2c1CCC2	7.6
COC(=O)c1c(NC(=S)Nc2ccc(C(F)(F)F)cc2)sc2c1CCCC2	33.9
CC(C)OC(=O)c1c(NC(=S)Nc2ccc(Br)c3ccccc23)sc2c1CCC2	0.039
COC(=O)c1c(NC(=S)Nc2cccc3ccccc23)sc2c1CCCC2	7.33
